# Measured values published in the NIST ThermoML archive (doi:10.1016/j.jct.2017.11.017).
# Numbers after ± are expanded uncertainties.
# Experiment: activity coefficient (dimensionless); of the first substance listed, at infinite dilution; xn = mol fraction of the nth substance listed
# Conditions: 101.33 kPa, Liquid, Chromatography, x1 = 0
SMILES,activity coefficient (298.15 K),activity coefficient (308.15 K),activity coefficient (318.15 K),activity coefficient (328.15 K),activity coefficient (338.15 K),activity coefficient (348.15 K),activity coefficient (358.15 K),activity coefficient (368.15 K)
CC1CCCCC1 [methylcyclohexane] + C[N+]1(CCCO)CCOCC1.N#C[N-]C#N,865 ± 60,654 ± 45,508 ± 35,404 ± 28,321 ± 22,–,–,–
CC1CCCCC1 [methylcyclohexane] + C[n+]1ccn(CCCO)c1.N#CN=C=[N-],207 ± 14,187 ± 13,169 ± 12,154 ± 11,141 ± 10,131 ± 9,121 ± 8,–
CCCCCCCCC [nonane] + C[N+]1(CCCO)CCOCC1.N#C[N-]C#N,–,2260 ± 160,1870 ± 130,1570 ± 110,1340 ± 92,1160 ± 80,994 ± 69,867 ± 60
CCCCCCCCC [nonane] + C[n+]1ccn(CCCO)c1.N#CN=C=[N-],1360 ± 94,1200 ± 83,1070 ± 74,955 ± 66,863 ± 59,780 ± 54,722 ± 50,–
C=CCCCCCC [oct-1-ene] + C[N+]1(CCCO)CCOCC1.N#C[N-]C#N,1170 ± 81,937 ± 65,764 ± 53,635 ± 44,534 ± 37,453 ± 31,–,–
C=CCCCCCC [oct-1-ene] + C[n+]1ccn(CCCO)c1.N#CN=C=[N-],358 ± 25,331 ± 23,305 ± 21,282 ± 19,263 ± 18,245 ± 17,234 ± 16,–
CCCCCCCC [octane] + C[N+]1(CCCO)CCOCC1.N#C[N-]C#N,2070 ± 140,1730 ± 120,1460 ± 100,1260 ± 87,1090 ± 75,–,–,–
CCCCCCCC [octane] + C[n+]1ccn(CCCO)c1.N#CN=C=[N-],881 ± 61,779 ± 54,698 ± 48,626 ± 43,560 ± 39,509 ± 35,465 ± 32,–
CCCCCO [pentan-1-ol] + C[N+]1(CCCO)CCOCC1.N#C[N-]C#N,–,–,7.75 ± 0.53,7.49 ± 0.51,7.26 ± 0.5,7.11 ± 0.48,6.88 ± 0.47,6.76 ± 0.46
CCCCCO [pentan-1-ol] + C[n+]1ccn(CCCO)c1.N#CN=C=[N-],–,–,4.16 ± 0.28,4.14 ± 0.28,4.1 ± 0.28,4.06 ± 0.28,4.08 ± 0.28,4.05 ± 0.28
CCCC(C)=O [pentan-2-one] + C[N+]1(CCCO)CCOCC1.N#C[N-]C#N,–,–,7.85 ± 0.54,7.96 ± 0.54,8.1 ± 0.55,8.23 ± 0.56,8.33 ± 0.57,8.44 ± 0.58
CCCC(C)=O [pentan-2-one] + C[n+]1ccn(CCCO)c1.N#CN=C=[N-],–,–,4.94 ± 0.34,5.14 ± 0.35,5.32 ± 0.36,5.46 ± 0.37,5.67 ± 0.39,5.81 ± 0.4
CCC(=O)CC [pentan-3-one] + C[N+]1(CCCO)CCOCC1.N#C[N-]C#N,–,–,8.09 ± 0.55,8.2 ± 0.56,8.38 ± 0.57,8.52 ± 0.58,8.61 ± 0.59,8.75 ± 0.6
CCC(=O)CC [pentan-3-one] + C[n+]1ccn(CCCO)c1.N#CN=C=[N-],–,–,5.1 ± 0.35,5.29 ± 0.36,5.54 ± 0.38,5.71 ± 0.39,5.95 ± 0.41,6.11 ± 0.42
CCCO [propan-1-ol] + C[N+]1(CCCO)CCOCC1.N#C[N-]C#N,–,–,2.63 ± 0.18,2.58 ± 0.18,2.55 ± 0.17,2.52 ± 0.17,2.49 ± 0.17,2.46 ± 0.17
CCCO [propan-1-ol] + C[n+]1ccn(CCCO)c1.N#CN=C=[N-],–,–,1.77 ± 0.12,1.76 ± 0.12,1.76 ± 0.12,1.76 ± 0.12,1.77 ± 0.12,1.78 ± 0.12
CC(C)O [propan-2-ol] + C[N+]1(CCCO)CCOCC1.N#C[N-]C#N,–,–,2.85 ± 0.19,2.78 ± 0.19,2.72 ± 0.19,2.67 ± 0.18,2.64 ± 0.18,2.6 ± 0.18
CC(C)O [propan-2-ol] + C[n+]1ccn(CCCO)c1.N#CN=C=[N-],–,–,1.92 ± 0.13,1.92 ± 0.13,1.92 ± 0.13,1.91 ± 0.13,1.91 ± 0.13,1.92 ± 0.13
CCCc1ccccc1 [propylbenzene] + C[N+]1(CCCO)CCOCC1.N#C[N-]C#N,–,–,54.1 ± 3.7,53.2 ± 3.6,52.4 ± 3.6,51.5 ± 3.5,51 ± 3.5,50.2 ± 3.4
CCCc1ccccc1 [propylbenzene] + C[n+]1ccn(CCCO)c1.N#CN=C=[N-],–,–,26.8 ± 1.8,27.3 ± 1.9,27.6 ± 1.9,27.9 ± 1.9,28.2 ± 1.9,28.4 ± 1.9
c1ccncc1 [pyridine] + C[N+]1(CCCO)CCOCC1.N#C[N-]C#N,–,–,1.71 ± 0.11,1.8 ± 0.12,1.89 ± 0.13,1.97 ± 0.13,2.06 ± 0.14,2.15 ± 0.15
c1ccncc1 [pyridine] + C[n+]1ccn(CCCO)c1.N#CN=C=[N-],–,–,1.33 ± 0.09,1.41 ± 0.09,1.5 ± 0.1,1.58 ± 0.1,1.67 ± 0.11,1.75 ± 0.12
C=Cc1ccccc1 [styrene] + C[N+]1(CCCO)CCOCC1.N#C[N-]C#N,–,–,9.96 ± 0.68,10.3 ± 0.7,10.5 ± 0.7,10.8 ± 0.7,11 ± 0.8,11.3 ± 0.8
C=Cc1ccccc1 [styrene] + C[n+]1ccn(CCCO)c1.N#CN=C=[N-],–,–,5.97 ± 0.41,6.25 ± 0.43,6.57 ± 0.45,6.82 ± 0.46,7.14 ± 0.49,7.39 ± 0.5
C1CCOC1 [tetrahydrofuran] + C[N+]1(CCCO)CCOCC1.N#C[N-]C#N,–,–,4.57 ± 0.31,4.61 ± 0.31,4.67 ± 0.32,4.72 ± 0.32,4.78 ± 0.33,4.83 ± 0.33
C1CCOC1 [tetrahydrofuran] + C[n+]1ccn(CCCO)c1.N#CN=C=[N-],–,–,3.07 ± 0.21,3.19 ± 0.22,3.33 ± 0.23,3.44 ± 0.23,3.57 ± 0.24,3.67 ± 0.25
c1ccsc1 [thiophene] + C[N+]1(CCCO)CCOCC1.N#C[N-]C#N,–,–,3.23 ± 0.22,3.37 ± 0.23,3.51 ± 0.24,3.64 ± 0.25,3.77 ± 0.26,3.9 ± 0.27
c1ccsc1 [thiophene] + C[n+]1ccn(CCCO)c1.N#CN=C=[N-],–,–,2.44 ± 0.17,2.57 ± 0.17,2.69 ± 0.18,2.82 ± 0.19,2.95 ± 0.2,3.07 ± 0.21
